Test results from patent publication US20030220266A1, “Method of treating a disease” (priority 2001, published 2003).
“Also recorded” adds a separate entry of the source.

Legend:
Assay type in all cases: cell-based, human
[1] = test system: EP1 receptor in COX-1 Tet-Off HeLa cells; assay: Inositol phosphate accumulation (EP1 receptor activity); conditions: induced expression of COX-1 and PGE2 stimulation; data not shown
Source text: No significant difference in basal cAMP production was detected in uninduced and induced cells (FIG. 6). […] The activity of EP1 receptor was investigated by measuring inositol phosphate accumulation (41).

[2] = test system: EP2/EP4 receptors in cervical tissue; assay: cAMP production in cervical tissues in response to exogenous PGE2 or forskolin; conditions: 300 nM PGE2 or 50 μM forskolin, 5 minutes, after overnight indomethacin
Protocol: Cervical tissues (n=6 squamous carcinoma, n=1 adenocarcinoma and n=5 normal cervix) were sectioned finely, divided equally into three aliquots and incubated overnight in Dulbecco's Modified Eagle Medium (DMEM) (Sigma), containing 10% foetal calf serum, 0.3 mg/ml L-glutamine, 100 IU penicillin and 100 μg streptomycin and 3 μg/ml indomethacin. […] Tissue sections were harvested-by centrifugation at 2000 g. The supernatant was discarded and the tissue homogenised in 0.1 M HCl. cAMP concentration and protein concentrations were determined as mentioned above

[3] = test system: COX-1, COX-2 and PGES expression in HeLa COX-1 Tet-Off cells; assay: Western blot of COX-1, COX-2 and PGES expression after COX-1 induction; conditions: for effect on COX-1-mediated up-regulation of COX-2 expression / effect on COX-1-mediated up-regulation of PGES expression / effect on COX-1 overexpression: co-treatment of cells induced for 24, 48 and 72 hrs
Source text: (§1) The Tet-Off expression system we used was developed by Gossen and co-workers (38) to deliver doxycycline-regulated expression based on the high specificity of the Escherichia coli tet repressor-operator-doxycycline interaction. In the Tet-Off expression system each clonal cell line is used as its own control (cells cultured in the presence of DOX) and the overexpression of the integrated target gene is modulated solely by removing DOX from the culture medium. This eliminates the need for a control clonal cell line transfected with vector alone (as used with constitutive stable expression systems) thereby overcoming the inherent variation that arises from different sites of integration of DNA between different clones. HeLa Tet-Off cells containing the pTet-Off vector stably transfected and constitutively expressing the tetracycline-controlled transactivator tTA (composed of a fusion of the TetR and VP16 activation domain) were purchased from Clontech. The pBS(SK−)/PSHI cDNA containing the full length COX-1 gene (kindly supplied by Dr Stephen Prescott, University of Utah, Salt Lake City, Utah) was used as the template plasmid. The response plasmid pTRE2 (containing the minimal cytomegalovirus promoter containing Tet-operator sequences cloned upstream of the cDNA to be expressed) and the plasmid for antibiotic selection (pTK-hygromycin) for use with the Tet-Off system were purchased from Clontech. The COX-1 gene was excised from the template plasmid and ligated at the Bam H1 site of the pTRE2 vector. The orientation of the insert was verified by dideoxy DNA sequencing using the sequence specific primers: 5′-[…]-3′ (SEQ ID No 8) and 5′-[…]-3′ (SEQ ID No 9) (Clontech). Cells were plated in 12 well dishes in complete medium containing 10 μg/ml G418 per well and were allowed to attach and grow overnight. The pTRE2 vector containing the COX-1 gene (2 μg) was co-transfected with pTK-hygromycin (0.1 μg, which contains the hygromycin gene under control of the minimal thymidine kinase (TK) promoter) into the HeLa Tet-Off cell line at about 80% confluency using pfx-5 (Invitrogen, De Schelp, Netherlands) diluted in Optimem (Gibco). Cells were incubated for 4 hrs at 37° C. in 5% humidified CO2. Thereafter the medium was replaced with fresh complete medium containing no G418. Cells were allowed to grow for 72 hrs. Transfected cells were then seeded together with wild-type cells. Clones were selected against 200 μg/ml hygromycin in the presence of 1 μg/ml DOX. At least 50 hygromycin-resistant clones were picked using cloning cylinders. Clones were allowed to grow under continuous selection with hygromycin in the presence of DOX and then screened for the ability to express COX-1 in the presence and absence of DOX by immunoblot analysis. […] Unless otherwise stated, all clones were maintained uninduced in 1 μg/ml DOX, 200 μg/ml hygromycin and 100 μg/ml G418. COX-inhibition studies were conducted by growing cells in medium containing 3 μg/ml indomethacin or 10 μM NS-398.
(§2) Cells were seeded in 5 cm dishes and allowed to attach overnight. The following day, the cells were synchronised by incubating with serum-free medium for 24 hrs. Thereafter, the medium was replaced with fresh complete medium and the cells were grown in the presence or absence of DOX for 24, 48 and 72 hrs respectively. In parallel, cells were co-treated with indomethacin or NS-398. Cells were harvested by lysing in protein lysis buffer (150 mM NaCl, 10 mM Tris-HCl pH 7.4, 1 mM EDTA, 1% Triton X-100, 0.1% SDS). The protein content in the supernatant fraction was determined as described above. The clarified cell lysates (20 μg) were denatured and electrophoresed on 4-20% Tris-Glycine gels (NOVEX, Invitrogen).

[4] = test system: cAMP-dependent PGE2-receptors in HeLa cells; assay: Real-time quantitative RT-PCR of PGE2 receptors after COX-1 overexpression; conditions: cells grown in medium containing indomethacin
Source text: The Tet-Off expression system we used was developed by Gossen and co-workers (38) to deliver doxycycline-regulated expression based on the high specificity of the Escherichia coli tet repressor-operator-doxycycline interaction. In the Tet-Off expression system each clonal cell line is used as its own control (cells cultured in the presence of DOX) and the overexpression of the integrated target gene is modulated solely by removing DOX from the culture medium. This eliminates the need for a control clonal cell line transfected with vector alone (as used with constitutive stable expression systems) thereby overcoming the inherent variation that arises from different sites of integration of DNA between different clones. HeLa Tet-Off cells containing the pTet-Off vector stably transfected and constitutively expressing the tetracycline-controlled transactivator tTA (composed of a fusion of the TetR and VP16 activation domain) were purchased from Clontech. The pBS(SK−)/PSHI cDNA containing the full length COX-1 gene (kindly supplied by Dr Stephen Prescott, University of Utah, Salt Lake City, Utah) was used as the template plasmid. […]

[5] = test system: bFGF, VEGF, Ang-1 and Ang-2 expression in HeLa COX-1 Tet-Off cells; assay: Western blot of angiogenic factors after COX-1 overexpression; conditions: COX-1 overexpression up to 72 hrs
Source text: as §1, §2

[6] = test system: cAMP-linked PGE2 receptors in HeLa COX-1 Tet-Off cells; assay: PGE2 stimulation and cAMP measurement in HeLa COX-1 Tet-Off cells; conditions: cells grown in medium containing indomethacin, COX-1 induced 48 hrs
Protocol: Cells (2×10^5) were plated in 6 well dishes containing 4 ml/well of complete medium containing DOX. Cells were allowed to attach overnight. The following day, the cells were synchronised by incubating with fresh medium containing no foetal bovine serum for 24 hrs. COX-1 Tet-Off cells were induced, by DOX withdrawal from the culture medium for 48 hrs at 37° C. in humidified 5% CO2 in the presence or absence of indomethacin. In parallel, control uninduced cells were supplemented daily with DOX. Thereafter the culture medium was removed and replaced with serum-free medium containing IBMX (Sigma) to a final concentration of 1 mM for 40 mins at 37° C. […] Following stimulation, the medium was removed and the cells lysed in 0.1M HCl. cAMP concentration was quantified by ELISA using a cAMP kit (Biomol, Affiniti, Exeter, UK) as per the manufacturer's protocol and normalised to protein concentration of the lysate. Protein concentrations were determined using protein assay kits (Bio-Rad).

[7] = test system: cervical carcinoma tissue and normal cervix; assay: Basal cAMP levels in cervical tissues cultured overnight
Protocol: Determination of Basal CAMP levels in cervical tissues. Initially, basal cAMP levels were measured in cervical tissue (n=7 squamous cell carcinomas and n=5 normal cervix; FIG. 12A). Carcinoma and normal cervical tissues were obtained on the day of surgery/biopsy, sectioned finely and divided equally into three aliquots. The tissue was transported at 4° C. and then incubated in 35 mm tissue culture dishes containing 2 ml of Dulbecco's Modified Eagle Medium (DMEM) (Sigma), containing 10% foetal calf serum, 0.3 mg/ml L-glutamine, 100 IU penicillin and 100 μg streptomycin for 1.5 hours. One aliquot of tissue was snap frozen to determine basal cAMP concentration in the tissue at the time of collection. The other two aliquots were incubated overnight at 37° C. in humidified 5% CO2 in the presence or absence of 3 μg/ml indomethacin [a dual COX enzyme inhibitor (24, 32)]. Subsequently, tissue sections were harvested by centrifugation at 2000 g. The supernatant was discarded and the tissue homogenised in 0.1 M HCl. cAMP concentration was quantified by ELISA using a cAMP kit (Biomol; Affiniti, Exeter, UK) as per the manufacturer's protocol and normalised to protein concentration of the homogenate, Protein concentrations were determined using protein assay kits (Bio-Rad, Hemel Hempstead, UK).

[8] = test system: COX-2, EP2 and EP4 expression in HeLa cells; assay: Real-time RT-PCR of COX-2, EP2 and EP4 in HeLa cells treated with seminal plasma; conditions: HeLa cells co-treated with seminal plasma and inhibitor
Protocol: In sexually active women growth and invasiveness of neoplastic cervical cells may be also under the direct influence of PGE present in seminal plasma. […] The expression of COX-2, EP2 and EP4, was measured by real-time RT-PCR.

HeLa COX-1 Tet-Off cells = assay: PGE2 secretion into culture medium (ELISA) after COX-1 induction; conditions: 5 μg/ml arachidonic acid
Source text: The Tet-Off expression system we used was developed by Gossen and co-workers (38) to deliver doxycycline-regulated expression based on the high specificity of the Escherichia coli tet repressor-operator-doxycycline interaction. In the Tet-Off expression system each clonal cell line is used as its own control (cells cultured in the presence of DOX) and the overexpression of the integrated target gene is modulated solely by removing DOX from the culture medium. This eliminates the need for a control clonal cell line transfected with vector alone (as used with constitutive stable expression systems) thereby overcoming the inherent variation that arises from different sites of integration of DNA between different clones. HeLa Tet-Off cells containing the pTet-Off vector stably transfected and constitutively expressing the tetracycline-controlled transactivator tTA (composed of a fusion of the TetR and VP16 activation domain) were purchased from Clontech. The pBS(SK−)/PSHI cDNA containing the full length COX-1 gene (kindly supplied by Dr Stephen Prescott, University of Utah, Salt Lake City, Utah) was used as the template plasmid. The response plasmid pTRE2 (containing the minimal cytomegalovirus promoter containing Tet-operator sequences cloned upstream of the cDNA to be expressed) and the plasmid for antibiotic selection (pTK-hygromycin) for use with the Tet-Off system were purchased from Clontech. The COX-1 gene was excised from the template plasmid and ligated at the Bam H1 site of the pTRE2 vector. The orientation of the insert was verified by dideoxy DNA sequencing using the sequence specific primers: 5′-[…]-3′ (SEQ ID No 8) and 5′-[…]-3′ (SEQ ID No 9) (Clontech). Cells were plated in 12 well dishes in complete medium containing 10 μg/ml G418 per well and were allowed to attach and grow overnight. The pTRE2 vector containing the COX-1 gene (2 μg) was co-transfected with pTK-hygromycin (0.1 μg, which contains the hygromycin gene under control of the minimal thymidine kinase (TK) promoter) into the HeLa Tet-Off cell line at about 80% confluency using pfx-5 (Invitrogen, De Schelp, Netherlands) diluted in Optimem (Gibco). Cells were incubated for 4 hrs at 37° C. in 5% humidified CO2. Thereafter the medium was replaced with fresh complete medium containing no G418. Cells were allowed to grow for 72 hrs. Transfected cells were then seeded together with wild-type cells. Clones were selected against 200 μg/ml hygromycin in the presence of 1 μg/ml DOX. At least 50 hygromycin-resistant clones were picked using cloning cylinders. Clones were allowed to grow under continuous selection with hygromycin in the presence of DOX and then screened for the ability to express COX-1 in the presence and absence of DOX by immunoblot analysis. […]

[9] = COX-1 induced 48 hrs with inhibitor (3 μg/ml indomethacin or 10 μM NS-398), induced without inhibitor 272.2±18.8 nM
[10] = COX-1 induced 72 hrs with inhibitor (3 μg/ml indomethacin or 10 μM NS-398), induced without inhibitor 537±22.5 nM

SMILES	effect on COX-1-mediated up-regulation of COX-2 expression [3]	effect on COX-1-mediated up-regulation of PGES expression [3]	effect on COX-1 overexpression [3]	effect on COX-1 associated up-regulation of Ang-1 [5]	effect on COX-1 associated up-regulation of Ang-2 [5]	effect on COX-1 associated up-regulation of bFGF [5]	effect on seminal plasma up-regulation of EP2/EP4 receptor expression [8]	PGE2 levels in culture medium (HeLa COX-1 Tet-Off cells; [9])	PGE2 levels in culture medium (HeLa COX-1 Tet-Off cells; [10])	also measured
CCCCC[C@H](O)/C=C/[C@H]1[C@H](O)CC(=O)[C@@H]1C/C=C\CCCC(=O)O [PGE2, prostaglandin E2]	–	–	–	–	–	–	–	–	–	inositol phosphate accumulation [1]: No inositol phosphate accumulation above basal
C=C[C@@]1(C)CC(=O)[C@]2(O)[C@@]3(C)[C@@H](O)CCC(C)(C)[C@@H]3[C@H](O)[C@H](OC(C)=O)[C@@]2(C)O1 [forskolin]	–	–	–	–	–	–	–	–	–	fold induction of cAMP generation in cancer tissue [2]: 55.3±15.84 fold; fold induction of cAMP generation in normal cervix [2]: 9.18±1.59 fold
COc1ccc2c(c1)c(CC(=O)O)c(C)n2C(=O)c1ccc(Cl)cc1 [indomethacin]	inhibited; also recorded: abolished	inhibited; also recorded: abolished	no alteration	abolished	abolished	abolished	abolished	62 ± 7 nM	76 ± 10.7 nM	effect on up-regulation of the cAMP-dependent PGE2-receptors by COX-1 overexpression [4]: inhibited; effect on COX-1 associated up-regulation of Ang-1 ([5]; listed as Indomethacin): inhibited; effect on COX-1 associated up-regulation of Ang-2 ([5]; listed as Indomethacin): inhibited; effect on COX-1 associated up-regulation of VEGF ([5]; listed as Indomethacin): inhibited; effect on COX-1 associated up-regulation of bFGF ([5]; listed as Indomethacin): inhibited; effect on COX-1 associated up-regulation of VEGF ([5]; listed as indormethacin): abolished; effect on elevated cAMP production in COX-1 overexpressing cells in response to PGE2 [6]: abolished; cAMP concentration in carcinoma tissue ([7]; overnight culture in presence of indomethacin, without indomethacin 64.2±5.1): 2.59±0.64 pmol cAMP/mg protein; cAMP concentration in normal cervical tissue ([7]; overnight incubation in presence of indomethacin, without indomethacin 11.96±1.35): 4.0±0.7 pmol cAMP/mg protein
O=S(=O)(NCCNC/C=C/c1ccc(Br)cc1)c1cccc2cnccc12 [H-89]	–	–	–	–	–	–	partially abolished	–	–	–
CS(=O)(=O)Nc1ccc([N+](=O)[O-])cc1OC1CCCCC1 [NS-398]	No significant change; also recorded: Partial inhibition	Partial inhibition	no alteration	partially reduced; also recorded: partially inhibited	partially reduced; also recorded: partially inhibited	partially reduced; also recorded: partially inhibited	partially abolished	132 ± 26.2 nM	268 ± 17 nM	delay of induction of PGES by COX-1 overexpression ([3]; treatment of HeLa cells with NS-398): 24 h; effect on COX-1 associated up-regulation of VEGF [5]: partially reduced; also recorded: partially inhibited
